Laboratory results taken from patent US20250230193A1, “CYCLIC COMPOUND HAVING SELECTIVE KRAS INHIBITORY EFFECT ON HRAS AND NRAS” (CHUGAI SEIYAKU KABUSHIKI KAISHA, priority 2022, published 2025).
Where a SMILES comes first, the peptide text is derived from it. Bridges are numbered along the chain shown (N, C = ends). [ ]: non-standard residue; d: D form. The star is where a group is joined. hPhe(3-Cl-4-CF3) = N[C@@H](CCc1ccc(C(F)(F)F)c(Cl)c1)C(=O)O; NPrPhe(4-CF3) = CCCN[C@@H](Cc1ccc(C(F)(F)F)cc1)C(=O)O; NMeGly(cPent) = CN[C@H](C(=O)O)C1CCCC1; NMeD = CN[C@@H](CC(=O)O)C(=O)O; NMeL = CN[C@@H](CC(C)C)C(=O)O; Ac6c = NC1(C(=O)O)CCCCC1; Morpholide = C1CN(*)CCO1; NMeA = CN[C@@H](C)C(=O)O; Aze = O=C(O)[C@@H]1CCN1; Sar = CNCC(=O)O

Tests used:
[1] = target: GDP-bound NRAS wild-type protein (Homo sapiens, UniProt P01111); assay: Binding to NRAS by surface plasmon resonance (SPR), Single Cycle Kinetics; conditions: for NRAS/KRAS (ratio of KD value with respect to GDP-bound NRAS wild-type protein to KD value with respect to KRAS): class symbols
[2] = target: GDP-bound HRAS wild-type protein (Homo sapiens, UniProt P01112); assay: Binding to HRAS by surface plasmon resonance (SPR), Single Cycle Kinetics; conditions: for HRAS/KRAS (ratio of KD value with respect to GDP-bound HRAS wild-type protein to KD value with respect to KRAS): class symbols
[3] = GDP-bound NRAS wild-type vs GDP-bound KRAS wild-type, SPR
[4] = GDP-bound HRAS wild-type vs GDP-bound KRAS wild-type, SPR

Chain of GDP-bound NRAS wild-type protein (P01111 whole entry): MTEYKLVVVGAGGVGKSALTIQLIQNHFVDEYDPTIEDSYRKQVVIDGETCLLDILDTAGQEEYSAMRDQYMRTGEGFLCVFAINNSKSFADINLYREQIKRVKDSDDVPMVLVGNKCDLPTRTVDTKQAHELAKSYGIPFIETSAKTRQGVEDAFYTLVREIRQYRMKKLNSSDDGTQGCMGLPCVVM
Chain of GDP-bound HRAS wild-type protein (P01112 whole entry): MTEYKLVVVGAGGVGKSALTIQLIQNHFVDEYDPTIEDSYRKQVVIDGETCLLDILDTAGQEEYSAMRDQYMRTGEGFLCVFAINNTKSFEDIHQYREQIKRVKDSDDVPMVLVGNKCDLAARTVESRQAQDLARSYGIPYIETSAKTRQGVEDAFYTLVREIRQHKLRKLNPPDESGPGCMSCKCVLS

CCC[C@H]1C(=O)N[C@@H]([C@@H](C)CC)C(=O)N(C)CC(=O)N(C)[C@H]2C/C=C\CCN(C2=O)[C@@H](Cc2ccc(C)cc2)C(=O)N(C)CC(=O)N[C@@H](CCc2ccc(C(F)(F)F)c(OC)c2)C(=O)N2C[C@H](OCC)C[C@H]2C(=O)NC2(CC(C)(C)C2)C(=O)N(C)[C@@H](C(CC)CC)C(=O)N(C)[C@H](C(=O)N(C)C)CC(=O)N1C [PP2068]
NRAS/KRAS (ratio of KD value with respect to NRAS to KD value with respect to KRAS) ([1]; SPR, GDP-bound NRAS wild-type vs GDP-bound KRAS wild-type): A (a compound having 10 or more and less than 20 is denoted as A) | HRAS/KRAS (ratio of KD value with respect to HRAS to KD value with respect to KRAS) ([2]; SPR, GDP-bound HRAS wild-type vs GDP-bound KRAS wild-type): B (a compound having 3 or more and less than 10 is denoted as B)

CCC(CC)[C@H]1C(=O)N(C)[C@H](C(=O)N(C)C)CC(=O)N(C)[C@@H](COC)C(=O)N[C@@H]([C@@H](C)CC)C(=O)N(C2CC2)CC(=O)N(C)[C@H]2C/C=C\CCN(C2=O)[C@@H](Cc2ccc(C(F)F)cc2)C(=O)N(C)CC(=O)N[C@@H](CCc2cc(F)c(C(F)(F)F)c(F)c2)C(=O)N2C[C@H](OC3CCC3)C[C@H]2C(=O)NC2(CC(C)(C)C2)C(=O)N1C [PP2631]
NRAS/KRAS (ratio of KD value with respect to GDP-bound NRAS wild-type protein to KD value with respect to KRAS) ([1]; KD ratio NRAS/KRAS): AA (a compound having 20 or more is denoted as AA) | HRAS/KRAS (ratio of KD value with respect to GDP-bound HRAS wild-type protein to KD value with respect to KRAS) ([2]; KD ratio HRAS/KRAS): A (a compound having 10 or more and less than 20 is denoted as A)

CCO[C@@H]1C[C@H]2C(=O)NC3(CC(C)(C)C3)C(=O)N(C)[C@@H](C3CCCC3)C(=O)N(C)[C@H](C(=O)N3CCCC3)CC(=O)N(C)[C@H]3CCC/C=C/c4ccc(cc4)C[C@@H](C(=O)N(C)CC(=O)N[C@@H](CCc4cc(F)c(C(F)(F)F)c(F)c4)C(=O)N2C1)N1CC/C=C\C[C@@H](C1=O)N(C)C(=O)CN(C)C(=O)[C@H]([C@@H](C)CC)NC3=O [PP2574, (1S,7S,11R,13S,19S,22S,26S,29S,35S,37Z,47E)-19-cyclopentyl-7-[2-[3,5-difluoro-4-(trifluoromethyl)phenyl]ethyl]-11-ethoxy-3,3′,3′,18,21,25,31,34-octamethyl-29-[(1S)-1-methylpropyl]-22-(pyrrolidine-1-carbonyl)spiro[3,6,9,15,18,21,25,28,31,34,41-undecazapentacyclo[24.15.10.2^43,46.1^35,41.0^9,13]tetrapentaconta-37,43(53),44,46(52),47-pentaene-16,1′-cyclobutane]-2,5,8,14,17,20,24,27,30,33,54-undecone]
NRAS/KRAS (ratio of KD value with respect to GDP-bound NRAS wild-type protein to KD value with respect to KRAS) ([1]; KD ratio NRAS/KRAS): A (a compound having 10 or more and less than 20 is denoted as A) | HRAS/KRAS (ratio of KD value with respect to GDP-bound HRAS wild-type protein to KD value with respect to KRAS) ([2]; KD ratio HRAS/KRAS): A (a compound having 10 or more and less than 20 is denoted as A)

CCCN(C)C(=O)[C@@H]1CC(=O)N(C)[C@@H](CC)C(=O)N[C@@H]([C@@H](C)CC)C(=O)N(C)CC(=O)N(C)[C@H]2C/C=C\CCN(C2=O)[C@@H](Cc2ccc(C(F)(F)F)cc2)C(=O)N(C)CC(=O)N[C@@H](CCc2cc(F)c(C(F)(F)F)c(F)c2)C(=O)N2C[C@H](OCC)C[C@H]2C(=O)NC2(CCC2)C(=O)N(C)[C@@H](C2CCCC2)C(=O)N1C [PP1699]
NRAS/KRAS (ratio of KD value for NRAS to KD value for KRAS) [1, 3]: A (a compound having 10 or more and less than 20 is denoted as A) | HRAS/KRAS (ratio of KD value for HRAS to KD value for KRAS) [2, 4]: A (a compound having 10 or more and less than 20 is denoted as A)

CCO[C@@H]1C[C@H]2C(=O)NC3(CC(C)(C)C3)C(=O)N(C)[C@@H](C3CCCC3)C(=O)N(C)[C@H](C(=O)N(C)C)CC(=O)N(C)[C@H]3CCCC/C=C/c4ccc(cc4)C[C@@H](C(=O)N(C)CC(=O)N[C@@H](CCc4cc(F)c(C(F)(F)F)c(F)c4)C(=O)N2C1)N1CC/C=C\C[C@@H](C1=O)N(C)C(=O)CN(C)C(=O)[C@H]([C@@H](C)CC)NC3=O [PP1831]
NRAS/KRAS (ratio of KD value for NRAS to KD value for KRAS) [1, 3]: A (a compound having 10 or more and less than 20 is denoted as A) | HRAS/KRAS (ratio of KD value for HRAS to KD value for KRAS) [2, 4]: A (a compound having 10 or more and less than 20 is denoted as A)

CC[C@H](C)[C@@H]1NC(=O)[C@H](CC(F)F)N(C)C(=O)C[C@@H](C(=O)N(C)C)N(C)C(=O)[C@H](C2CCCC2)N(C)C(=O)C2(CC(C)(C)C2)NC(=O)[C@@H]2CC(F)(F)CN2C(=O)[C@H](CCc2cc(F)c(C(F)(F)F)c(F)c2)NC(=O)CN(C)C(=O)[C@H](Cc2ccc(C(F)(F)F)cc2)N2CC/C=C\C[C@@H](C2=O)N(C)C(=O)CN(C)C1=O [PP1709]
NRAS/KRAS (ratio of KD value for NRAS to KD value for KRAS) [1, 3]: A (a compound having 10 or more and less than 20 is denoted as A) | HRAS/KRAS (ratio of KD value for HRAS to KD value for KRAS) [2, 4]: A (a compound having 10 or more and less than 20 is denoted as A)

CCCN1C(=O)[C@@H]2CCN2C(=O)[C@H](C)N(C)C(=O)[C@H]([C@@H](C)CC)NC(=O)[C@H](CC(C)C)N(C)C(=O)C[C@@H](C(=O)N2CCOCC2)N(C)C(=O)[C@H](C2CCCC2)N(C)C(=O)C2(CCCCC2)NC(=O)[C@@H]2CCCN2C(=O)[C@H](CCc2ccc(C(F)(F)F)c(Cl)c2)NC(=O)CN(C)C(=O)[C@@H]1Cc1ccc(C(F)(F)F)cc1 [PP0226] ([NMeL]I[NMeA][Aze][NPrPhe(4-CF3)][Sar][hPhe(3-Cl-4-CF3)]P[Ac6c][NMeGly(cPent)][NMeD]-Morpholide; lactam N-11)
NRAS/KRAS (ratio of KD for GDP-bound NRAS wild-type to KD for KRAS) ([1]; KD ratio NRAS/KRAS, SPR): C (A compound having a KD ratio of 0.1 or more and less than 3 is denoted as C) | HRAS/KRAS (ratio of KD for GDP-bound HRAS wild-type to KD for KRAS) ([2]; KD ratio HRAS/KRAS, SPR): B (a compound having 3 or more and less than 10 is denoted as B)
